One data set deals with CYP2D6 (Homo sapiens, UniProt P10635). Put plainly: Inhibition of human CYP2D6 at 10 uM preincubated for 10 mins followed by NADPH addition and measured after 20 mins by luciferin reagent based luminescence analysis. It counts as ADME. The settings on record: time 30 min.
The nature of data set [1]: Cytotoxicity against human HepG2 cells assessed as reduction in cell viability incubated for 24 hrs by MTS assay. It is filed as toxicity, cell-based. Conditions: read-out: LC50.
For another data set, the target named is CYP2C19 (Homo sapiens, UniProt P33261). Briefly: Inhibition of human CYP2C19 at 10 uM preincubated for 10 mins followed by NADPH addition and measured after 20 mins by luciferin reagent based luminescence analysis. It counts as ADME. The settings on record: time 30 min.
The next data set concerns the target CYP3A4 (Homo sapiens, UniProt P08684). Put plainly: Inhibition of human CYP3A4 at 10 uM preincubated for 10 mins followed by NADPH addition and measured after 20 mins by luciferin reagent based luminescence analysis. It counts as ADME. Conditions: time 30 min.
For data set [2], the target named is T1, hERG (KCNH2) (Homo sapiens, UniProt Q12809). Briefly: Inhibition of hERG incubated for 2 hrs by fluorescence polarization based assay. It counts as toxicity. In general terms: The hERG channel carries a current that helps repolarise heart muscle cells.
The target of another data set is CYP2C9 (Homo sapiens, UniProt P11712). Briefly: Inhibition of human CYP2C9 at 10 uM preincubated for 10 mins followed by NADPH addition and measured after 20 mins by luciferin reagent based luminescence analysis. It counts as ADME. Conditions: time 30 min.
The test system of data set [3] is Hepatitis B virus. Put plainly: Antiviral activity against Hepatitis B virus infected in human HepG2 cells expressing NTCP assessed as inhibition of viral entry by measuring intracellular HBV DNA at 1 uM preincubated with compound for 2 hrs followed by viral infection and measured after 3 hrs by qPCR analysis relative to control. It counts as functional. The settings on record: time 5 hrs.

In data set [4] the target is T1, hERG (KCNH2). Briefly: in vitro.
Description: Inhibition of hERG at 10 uM incubated for 2 hrs by fluorescence polarization based assay relative to control
Data set [5] relates to Hepatitis B virus. Put plainly: Antiviral activity against Hepatitis B virus infected in human HepG2 cells expressing NTCP assessed as inhibition of viral entry by measuring intracellular HBV DNA preincubated with compound for 2 hrs followed by viral infection and measured after 3 hrs by qPCR analysis. It is filed as functional, organism-based. A general note: Quantitative PCR measures a nucleic acid by following its amplification.

The next data set addresses T2, CYP1A2 (Homo sapiens, UniProt P05177).
T2 sequence (P05177 whole entry): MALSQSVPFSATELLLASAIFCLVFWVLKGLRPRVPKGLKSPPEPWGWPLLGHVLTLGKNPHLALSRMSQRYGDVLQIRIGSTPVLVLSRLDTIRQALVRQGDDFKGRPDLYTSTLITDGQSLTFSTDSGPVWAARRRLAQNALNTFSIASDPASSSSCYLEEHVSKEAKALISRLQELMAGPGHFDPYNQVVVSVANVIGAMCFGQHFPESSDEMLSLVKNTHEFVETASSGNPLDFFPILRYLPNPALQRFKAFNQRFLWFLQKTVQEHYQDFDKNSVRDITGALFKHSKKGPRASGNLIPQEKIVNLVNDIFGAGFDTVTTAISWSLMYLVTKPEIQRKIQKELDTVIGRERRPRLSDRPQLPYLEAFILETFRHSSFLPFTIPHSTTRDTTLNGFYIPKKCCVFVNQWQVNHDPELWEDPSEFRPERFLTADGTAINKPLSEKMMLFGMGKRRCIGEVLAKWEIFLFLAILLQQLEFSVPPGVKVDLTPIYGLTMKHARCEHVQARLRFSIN
Briefly: Inhibition of human CYP1A2 at 10 uM preincubated for 10 mins followed by NADPH addition and measured after 20 mins by luciferin reagent based luminescence analysis. It counts as ADME. The settings on record: time 30 min.

The values that follow come from ChEMBL document CHEMBL5126594, “Entry inhibition of hepatitis B virus using cyclosporin O derivatives with peptoid side chain incorporation” (Bioorg Med Chem, 2022).

SMILES strings stand for the structures.

CYP2D6, sequence (P10635 whole entry): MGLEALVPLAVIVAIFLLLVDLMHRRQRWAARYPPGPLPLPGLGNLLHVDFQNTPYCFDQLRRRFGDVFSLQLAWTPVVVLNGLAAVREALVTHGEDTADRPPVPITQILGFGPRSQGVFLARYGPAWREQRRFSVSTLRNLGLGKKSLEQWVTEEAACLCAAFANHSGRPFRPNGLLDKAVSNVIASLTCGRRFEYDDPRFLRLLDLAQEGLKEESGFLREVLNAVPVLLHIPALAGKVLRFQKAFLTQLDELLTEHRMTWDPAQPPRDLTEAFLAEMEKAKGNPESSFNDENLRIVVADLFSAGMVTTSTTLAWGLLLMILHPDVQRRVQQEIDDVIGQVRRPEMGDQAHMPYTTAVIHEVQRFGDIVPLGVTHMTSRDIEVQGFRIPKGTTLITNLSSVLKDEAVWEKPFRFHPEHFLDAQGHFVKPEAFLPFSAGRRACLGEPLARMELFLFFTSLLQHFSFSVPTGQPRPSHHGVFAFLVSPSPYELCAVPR
CYP2C19, sequence (P33261 whole entry): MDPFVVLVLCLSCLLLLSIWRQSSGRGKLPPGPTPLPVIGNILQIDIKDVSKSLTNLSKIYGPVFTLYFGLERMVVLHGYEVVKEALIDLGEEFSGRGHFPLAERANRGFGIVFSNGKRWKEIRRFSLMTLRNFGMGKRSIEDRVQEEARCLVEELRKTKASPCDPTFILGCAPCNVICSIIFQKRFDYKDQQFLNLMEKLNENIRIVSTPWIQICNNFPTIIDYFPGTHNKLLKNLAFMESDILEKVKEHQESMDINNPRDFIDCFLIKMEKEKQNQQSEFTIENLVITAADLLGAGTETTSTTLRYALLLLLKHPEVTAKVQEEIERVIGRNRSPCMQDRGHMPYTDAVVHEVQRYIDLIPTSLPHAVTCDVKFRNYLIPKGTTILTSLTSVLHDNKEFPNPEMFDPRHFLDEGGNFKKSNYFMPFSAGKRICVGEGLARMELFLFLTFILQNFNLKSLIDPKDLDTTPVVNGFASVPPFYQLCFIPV
T1 sequence (Q12809 whole entry): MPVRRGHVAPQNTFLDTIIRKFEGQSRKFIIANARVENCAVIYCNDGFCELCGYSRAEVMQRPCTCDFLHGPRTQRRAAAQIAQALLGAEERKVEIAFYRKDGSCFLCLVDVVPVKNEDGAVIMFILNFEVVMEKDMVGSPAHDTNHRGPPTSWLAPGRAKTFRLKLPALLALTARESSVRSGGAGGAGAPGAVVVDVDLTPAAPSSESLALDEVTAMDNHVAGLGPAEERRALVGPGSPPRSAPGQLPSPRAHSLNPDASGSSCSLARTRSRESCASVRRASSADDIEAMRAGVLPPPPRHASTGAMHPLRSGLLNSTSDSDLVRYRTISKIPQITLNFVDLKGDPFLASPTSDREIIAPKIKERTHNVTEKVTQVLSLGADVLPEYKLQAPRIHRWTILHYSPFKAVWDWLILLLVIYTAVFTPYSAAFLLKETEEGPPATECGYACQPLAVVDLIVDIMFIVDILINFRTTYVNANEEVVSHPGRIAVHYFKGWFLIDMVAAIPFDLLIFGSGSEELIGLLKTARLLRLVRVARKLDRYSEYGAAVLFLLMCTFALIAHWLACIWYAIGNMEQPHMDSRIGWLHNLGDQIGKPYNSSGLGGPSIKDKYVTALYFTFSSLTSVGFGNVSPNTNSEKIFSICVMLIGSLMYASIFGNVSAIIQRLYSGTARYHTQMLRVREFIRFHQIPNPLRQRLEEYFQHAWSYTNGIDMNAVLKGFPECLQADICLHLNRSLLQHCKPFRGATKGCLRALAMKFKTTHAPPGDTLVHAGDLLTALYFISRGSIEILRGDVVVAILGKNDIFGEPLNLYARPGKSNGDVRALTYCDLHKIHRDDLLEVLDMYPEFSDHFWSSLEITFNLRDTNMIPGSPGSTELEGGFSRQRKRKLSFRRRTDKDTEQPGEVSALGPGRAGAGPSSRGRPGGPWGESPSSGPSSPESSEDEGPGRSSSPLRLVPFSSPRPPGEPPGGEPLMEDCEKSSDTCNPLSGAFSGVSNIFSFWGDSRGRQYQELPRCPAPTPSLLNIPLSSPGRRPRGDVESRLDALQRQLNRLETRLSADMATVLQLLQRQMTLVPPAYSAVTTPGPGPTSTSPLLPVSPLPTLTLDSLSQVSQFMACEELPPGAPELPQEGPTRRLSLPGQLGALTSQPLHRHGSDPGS
CYP3A4, sequence (P08684 whole entry): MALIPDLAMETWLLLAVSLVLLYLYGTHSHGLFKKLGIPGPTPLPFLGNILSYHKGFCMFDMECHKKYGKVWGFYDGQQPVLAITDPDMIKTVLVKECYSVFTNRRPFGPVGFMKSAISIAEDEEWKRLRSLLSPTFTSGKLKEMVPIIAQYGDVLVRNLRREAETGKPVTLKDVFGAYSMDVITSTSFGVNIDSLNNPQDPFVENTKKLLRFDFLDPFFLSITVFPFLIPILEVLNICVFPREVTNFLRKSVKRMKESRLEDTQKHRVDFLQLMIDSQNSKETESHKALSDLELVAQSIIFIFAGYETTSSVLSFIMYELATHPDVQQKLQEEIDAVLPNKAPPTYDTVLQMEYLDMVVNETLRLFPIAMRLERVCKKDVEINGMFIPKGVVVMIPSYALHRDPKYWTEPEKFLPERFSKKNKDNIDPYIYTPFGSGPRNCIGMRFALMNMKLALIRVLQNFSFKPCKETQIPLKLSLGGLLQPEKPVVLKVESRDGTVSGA
CYP2C9, sequence (P11712 whole entry): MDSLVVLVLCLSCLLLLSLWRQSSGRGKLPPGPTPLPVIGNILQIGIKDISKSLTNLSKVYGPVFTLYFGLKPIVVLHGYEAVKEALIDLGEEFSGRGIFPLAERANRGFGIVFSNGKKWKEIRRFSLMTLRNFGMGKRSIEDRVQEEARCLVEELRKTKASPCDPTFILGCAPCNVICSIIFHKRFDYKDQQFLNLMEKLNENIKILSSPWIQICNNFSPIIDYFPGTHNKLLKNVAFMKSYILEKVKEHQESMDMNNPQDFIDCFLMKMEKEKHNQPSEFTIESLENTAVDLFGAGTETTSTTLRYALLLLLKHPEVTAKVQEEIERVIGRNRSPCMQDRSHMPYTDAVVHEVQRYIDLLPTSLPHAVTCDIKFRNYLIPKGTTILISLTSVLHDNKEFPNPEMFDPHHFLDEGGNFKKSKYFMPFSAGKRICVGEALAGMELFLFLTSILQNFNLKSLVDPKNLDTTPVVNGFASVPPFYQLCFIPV

A word on the inhibition: it is how much of the control response was suppressed. As a reminder, the EC50 is the concentration giving half of the maximal effect. A word on the IC50: it is the concentration needed to halve the response being measured. As to `CCC[C@@H]1NC(=O)[C@H](CC(C)C)N(C)C(=O)[C@H](CC(C)C)N(C)C(=O)CN(CCO)C(=O)[C@H](CC(C)C)N(C)C(=O)[C@@H](C)NC(=O)[C@@H](CCC(N)=O)NC(=O)[C@H](CC(C)C)N(C)C(=O)[C@H](C(C)C)NC(=O)[C@H](CC(C)C)N(C)C(=O)CN(C)C1=O`, the inhibition at 20 min, 10 µM against CYP2D6 was 35.1%; at CYP2C19, 29.4%; against CYP3A4, 35.5%; against CYP2C9 it was 14.8%; at CYP1A2 it was 8.4%. The CC50 at 24 h in data set [1] was above 200 µM. This molecule showed an EC50 at 2 h at hERG (KCNH2) [2] above 10 µM. Further, the inhibition at 1 µM in the data set with Hepatitis B virus [3] is 78%. This molecule also displayed an inhibition at 2 h, 10 µM against hERG (KCNH2) [4] of 19.1%. In the data set with Hepatitis B virus [5], the IC50 came to 0.36 µM.

`CN(C)CCC=C1c2ccccc2CCc2ccccc21` [AMITRIPTYLINE]: the inhibition at 20 min, 10 µM against CYP2C19 came out at 92.1%.

Take `C=C[C@H]1C[N@@]2CC[C@H]1C[C@@H]2[C@@H](O)c1ccnc2ccc(OC)cc12` [QUINIDINE]: the inhibition at 20 min, 10 µM against CYP2D6 came out at 97.5%.
